Results as given in paper PMC11213733, “Computational approaches identify a transcriptomic fingerprint of drug-induced structural cardiotoxicity” (Cell Biology and Toxicology, 2024).
Like-named read-outs stand apart in the source and are kept apart here.

What was measured:
[1] = system: cardiac microtissues; assay: Targeted qRT-PCR of ATAD3C, CDH13, IL6, PTX3, SLC7A5, UCHL1 in cardiac microtissues; type: cell-based, human; details: Sorafenib 3.74 µM, Sunitinib 3.53 µM, Dasatinib 10.8 µM; for activity at 10.8 µM: Homo sapiens, read-out: % of control
Experimental: The experiment was performed with three technical replicates across 1-2 independent replicates.

[2] = system: cardiac microtissues; assay: Transcriptomic profiling (mRNA-seq) and DESeq2 differential gene expression analysis in cardiac microtissues; details: absolute log2(Fold-Change) > 1, FDR p ≤ 0.05
[3] = system: cardiac microtissues; assay: Ingenuity Pathway Analysis over-representation of differentially expressed genes (activation Z-score); type: cell-based, human; details: 48hr high; Group 2
[4] = ref FDA label, cited from earlier work

Cc1nc(Nc2ncc(C(=O)Nc3c(C)cccc3Cl)s2)cc(N2CCN(CCO)CC2)n1 [Dasatinib]
activity at 10.8 µM ([1]; gene ATAD3C, Run 1): 75.7%
activity at 10.8 µM ([1]; gene CDH13, Run 1): 46.8%
activity at 10.8 µM ([1]; gene CDH13, Run 2): 19.7%
activity at 10.8 µM ([1]; gene IL6, Run 1): 10.1%
activity at 10.8 µM ([1]; gene PTX3, Run 1): 18.7%
activity at 10.8 µM ([1]; gene PTX3, Run 2): 4.94%
activity at 10.8 µM ([1]; gene SLC7A5, Run 1): 52.1%
activity at 10.8 µM ([1]; gene SLC7A5, Run 2): 26%
activity at 10.8 µM ([1]; gene UCHL1, Run 1): 42.1%
activity at 10.8 µM ([1]; gene UCHL1, Run 2): 21.3%
2^-ΔΔCt of Individual reps, Treated 1 ([1]; gene ATAD3C, Run 1): 0.8222
2^-ΔΔCt of Individual reps, Treated 2 ([1]; gene ATAD3C, Run 1): 0.6233
2^-ΔΔCt of Individual reps, Treated 3 ([1]; gene ATAD3C, Run 1): 0.828
Average 2^-ΔΔCt, Treated ([1]; gene ATAD3C, Run 1): 0.7578
2^-ΔΔCt of Individual reps, Treated 1 ([1]; gene CDH13, Run 1): 0.4709
2^-ΔΔCt of Individual reps, Treated 2 ([1]; gene CDH13, Run 1): 0.4361
2^-ΔΔCt of Individual reps, Treated 3 ([1]; gene CDH13, Run 1): 0.5098
Average 2^-ΔΔCt, Treated ([1]; gene CDH13, Run 1): 0.4723
2^-ΔΔCt of Individual reps, Treated 1 ([1]; gene CDH13, Run 2): 0.2109
2^-ΔΔCt of Individual reps, Treated 2 ([1]; gene CDH13, Run 2): 0.2308
2^-ΔΔCt of Individual reps, Treated 3 ([1]; gene CDH13, Run 2): 0.1575
Average 2^-ΔΔCt, Treated ([1]; gene CDH13, Run 2): 0.1997
2^-ΔΔCt of Individual reps, Treated 1 ([1]; gene IL6, Run 1): 0.1388
2^-ΔΔCt of Individual reps, Treated 2 ([1]; gene IL6, Run 1): 0.1078
2^-ΔΔCt of Individual reps, Treated 3 ([1]; gene IL6, Run 1): 0.05876
Average 2^-ΔΔCt, Treated ([1]; gene IL6, Run 1): 0.1018
2^-ΔΔCt of Individual reps, Treated 1 ([1]; gene PTX3, Run 1): 0.2236
2^-ΔΔCt of Individual reps, Treated 2 ([1]; gene PTX3, Run 1): 0.2024
2^-ΔΔCt of Individual reps, Treated 3 ([1]; gene PTX3, Run 1): 0.143
Average 2^-ΔΔCt, Treated ([1]; gene PTX3, Run 1): 0.1897
2^-ΔΔCt of Individual reps, Treated 1 ([1]; gene PTX3, Run 2): 0.06731
2^-ΔΔCt of Individual reps, Treated 2 ([1]; gene PTX3, Run 2): 0.04708
2^-ΔΔCt of Individual reps, Treated 3 ([1]; gene PTX3, Run 2): 0.03383
Average 2^-ΔΔCt, Treated ([1]; gene PTX3, Run 2): 0.04941
2^-ΔΔCt of Individual reps, Treated 1 ([1]; gene SLC7A5, Run 1): 0.5311
2^-ΔΔCt of Individual reps, Treated 2 ([1]; gene SLC7A5, Run 1): 0.5414
2^-ΔΔCt of Individual reps, Treated 3 ([1]; gene SLC7A5, Run 1): 0.5079
Average 2^-ΔΔCt, Treated ([1]; gene SLC7A5, Run 1): 0.5268
2^-ΔΔCt of Individual reps, Treated 1 ([1]; gene SLC7A5, Run 2): 0.3467
2^-ΔΔCt of Individual reps, Treated 2 ([1]; gene SLC7A5, Run 2): 0.2554
2^-ΔΔCt of Individual reps, Treated 3 ([1]; gene SLC7A5, Run 2): 0.2489
Average 2^-ΔΔCt, Treated ([1]; gene SLC7A5, Run 2): 0.2837
2^-ΔΔCt of Individual reps, Treated 1 ([1]; gene UCHL1, Run 1): 0.4041
2^-ΔΔCt of Individual reps, Treated 2 ([1]; gene UCHL1, Run 1): 0.4271
2^-ΔΔCt of Individual reps, Treated 3 ([1]; gene UCHL1, Run 1): 0.4398
Average 2^-ΔΔCt, Treated ([1]; gene UCHL1, Run 1): 0.4237
2^-ΔΔCt of Individual reps, Treated 1 ([1]; gene UCHL1, Run 2): 0.202
2^-ΔΔCt of Individual reps, Treated 2 ([1]; gene UCHL1, Run 2): 0.2889
2^-ΔΔCt of Individual reps, Treated 3 ([1]; gene UCHL1, Run 2): 0.1891
Average 2^-ΔΔCt, Treated ([1]; gene UCHL1, Run 2): 0.2267
number of significant differentially expressed genes, 6hr high ([2]; 6 hr, high concentration): 108
number of significant differentially expressed genes, 6hr low ([2]; 6 hr, low concentration): 48
number of significant differentially expressed genes, 48hr high ([2]; 48 hr, high concentration): 820
number of significant differentially expressed genes, 48hr low ([2]; 48 hr, low concentration): 637
number of significant differentially expressed genes, 72hr high ([2]; 72 hr, high concentration): 814
number of significant differentially expressed genes, 72hr low ([2]; 72 hr, low concentration): 616
activation Z-score: Actin Cytoskeleton Signaling [3]: -2.887
activation Z-score: Actin Nucleation by ARP-WASP Complex [3]: -2.449
activation Z-score: Acute Phase Response Signaling [3]: -2.828
activation Z-score: Adrenomedullin signaling pathway [3]: -0.535
activation Z-score: Apelin Cardiac Fibroblast Signaling Pathway [3]: 2.449
activation Z-score: Apelin Liver Signaling Pathway [3]: -2.449
activation Z-score: Aryl Hydrocarbon Receptor Signaling [3]: -2.333
activation Z-score: Breast Cancer Regulation by Stathmin1 [3]: -3.363
activation Z-score: CLEAR Signaling Pathway [3]: 2.5
activation Z-score: Cardiac Hypertrophy Signaling (Enhanced) [3]: -3.889
activation Z-score: Colorectal Cancer Metastasis Signaling [3]: -3.5
activation Z-score: Cyclins and Cell Cycle Regulation [3]: 1
activation Z-score: ERK5 Signaling [3]: -2.646
activation Z-score: Endothelin-1 Signaling [3]: -1.604
activation Z-score: G-Protein Coupled Receptor Signaling [3]: -1.571
activation Z-score: GP6 Signaling Pathway [3]: -3.742
activation Z-score: Glioblastoma Multiforme Signaling [3]: -2.111
activation Z-score: HGF Signaling [3]: -1.89
activation Z-score: HIF1Î± Signaling [3]: -2.673
activation Z-score: HMGB1 Signaling [3]: -3.3
activation Z-score: Hepatic Fibrosis Signaling Pathway [3]: -6.008
activation Z-score: IL-6 Signaling [3]: -3.3
activation Z-score: IL-8 Signaling [3]: -2.84
activation Z-score: IL-13 Signaling Pathway [3]: -1.897
activation Z-score: IL-15 Production [3]: -1.897
activation Z-score: ILK Signaling [3]: -3.207
activation Z-score: Immunogenic Cell Death Signaling Pathway [3]: -2.828
activation Z-score: Integrin Signaling [3]: -3.357
activation Z-score: Intrinsic Prothrombin Activation Pathway [3]: -2.236
activation Z-score: LXR/RXR Activation [3]: 3.3
activation Z-score: Leukocyte Extravasation Signaling [3]: -1.698
activation Z-score: MIF Regulation of Innate Immunity [3]: -1.633
activation Z-score: MYC Mediated Apoptosis Signaling [3]: -2.449
activation Z-score: Macrophage Alternative Activation Signaling Pathway [3]: -0.728
activation Z-score: Oncostatin M Signaling [3]: -1.342
activation Z-score: Osteoarthritis Pathway [3]: -2.985
activation Z-score: Oxytocin Signaling Pathway [3]: -2.4
activation Z-score: PAK Signaling [3]: -2.449
activation Z-score: PPAR Signaling [3]: 3.742
activation Z-score: Production of Nitric Oxide and Reactive Oxygen Species in Macrophages [3]: -2.646
activation Z-score: Prostanoid Biosynthesis [3]: -1
activation Z-score: Pulmonary Fibrosis Idiopathic Signaling Pathway [3]: -5.947
activation Z-score: Pulmonary Healing Signaling Pathway [3]: -2.668
activation Z-score: RAC Signaling [3]: -2.449
activation Z-score: RHOGDI Signaling [3]: 2.309
activation Z-score: Regulation Of The Epithelial Mesenchymal Transition By Growth Factors Pathway [3]: -3.962
activation Z-score: Regulation of Cellular Mechanics by Calpain Protease [3]: -2
activation Z-score: Regulation of eIF4 and p70S6K Signaling [3]: -2
activation Z-score: Renin-Angiotensin Signaling [3]: -2
activation Z-score: Ribonucleotide Reductase Signaling Pathway [3]: -2.496
activation Z-score: Role of IL-17F in Allergic Inflammatory Airway Diseases [3]: -2
activation Z-score: Role of JAK family kinases in IL-6-type Cytokine Signaling [3]: -2.673
activation Z-score: Role of NFAT in Cardiac Hypertrophy [3]: -2.496
activation Z-score: STAT3 Pathway [3]: -2.496
activation Z-score: Senescence Pathway [3]: -2
activation Z-score: Signaling by Rho Family GTPases [3]: -3.357
activation Z-score: Superpathway of Cholesterol Biosynthesis [3]: 2
activation Z-score: TREM1 Signaling [3]: -2.714
activation Z-score: Type II Diabetes Mellitus Signaling [3]: -2
activation Z-score: White Adipose Tissue Browning Pathway [3]: -2.111
activation Z-score: Wound Healing Signaling Pathway [3]: -5
Structural cardiotoxin? ([4]; FDA label references heart failure or a decrease in left ventricular ejection fraction): Y
Functional cardiotoxin? ([4]; compound annotation): Y
